{"source": "patent US6649568B2", "about": "“Brassinosteroid biosynthesis inhibitor” (Riken, priority 2000, dated 2003)", "key": {"[1]": {"tested_on": "brassinosteroid biosynthesis", "details": "reported in Japanese Patent Application No. 10-227939; cited from earlier work"}, "[2]": {"tested_on": "elongation of cress lower hypocotyl", "assay": "Inhibition of elongation of cress lower hypocotyl, with rescue by brassinolide or gibberellin", "format": "in vivo", "details": "FIG. 2", "procedure": "Surfaces of cress seeds purchased were sterilized with 1% NaOCl solution for 20 minutes and washed 5 times with distilled water. The resulting cress seeds were sown on 1% agar-solidified medium (containing 0.5×Murashige and Skoog salts and 1.5% sucrose in Agripot (Kirin Brew Co., Tokyo)). The plants was grown in a growth chamber kept at 25[…] under a cycle of 16 hour light (240 μEm-2s-1) and 8 hour dark conditions. […] The inhibitory effect of the compound of the present invention against elongation of cress lower hypocotyl was suppressed by addition of blassinolide, whilst not suppressed by addition of gibberellin (FIG. 1)."}}}
{"smiles": "CC(O)(c1ccccc1)C(Cc1ccc(Cl)cc1)c1nc[nH]n1", "note": "(centres unmarked) [Brz91, 4-(4-chlorophenyl)-2-phenyl-3-(1,2,4-triazolyl)butan-2-ol]", "values": [{"measurement": "inhibitory action against the brassinosteroid biosynthesis", "setting": "[1]", "value": "had the desired inhibitory action"}]}
{"smiles": "C=CCC(O)(c1ccccc1)C(Cc1ccc(Cl)cc1)n1cncn1", "note": "(centres unmarked) [Brz2001, 6-(4-Chlorophenyl)-4-phenyl-5-(1,2,4-triazoyl)hexen-1-en-4-ol]", "values": [{"measurement": "inhibitory action against brassinosteroid biosynthesis, comparison with Brz91", "setting": "[2]", "value": "inhibitory action"}]}
